# According to patent US12371454B2, “Cyclic peptide compound having Kras inhibitory action” (priority 2019, dated 2025):
# Starred links: 1 amine or outer side, 2 acyl side, 3 side chain; linkers in the order of their positions; H or OH if unused. Positions of bridges follow the written chain, without caps; N, C: chain ends. Non-standard residues stand in square brackets, D forms with d. Residues, ends and D or L forms follow the SMILES beside them. *: point of attachment. NMeAbu(3,3-F2-piperidino) = CN[C@@H](CCN1CCCC(F)(F)C1)C(=O)O; hPhe(3-Cl-4-CF3) = N[C@@H](CCc1ccc(C(F)(F)F)c(Cl)c1)C(=O)O; hPhe(3-F,4-CF3) = N[C@@H](CCc1ccc(C(F)(F)F)c(F)c1)C(=O)O; hPhe(4-CF3) = N[C@@H](CCc1ccc(C(F)(F)F)cc1)C(=O)O; NMePhe(4-Cl) = CN[C@@H](Cc1ccc(Cl)cc1)C(=O)O; NMedβ3hAla = C[C@H](CC(=O)[*:2])N(C)[*:1]; Abu(4,4,4-F3) = N[C@@H](CC(F)(F)F)C(=O)O; NMeGly(cPent) = CN[C@H](C(=O)O)C1CCCC1; Phe(2-F) = N[C@@H](Cc1ccccc1F)C(=O)O; NMeY = CN[C@@H](Cc1ccc(O)cc1)C(=O)O; NMeCha = CN[C@@H](CC1CCCCC1)C(=O)O; Azetidine(3,3-F2) = FC1(F)CN(*)C1; NMeChg = CN[C@H](C(=O)O)C1CCCCC1; NMeF = CN[C@@H](Cc1ccccc1)C(=O)O; NMeD = CN[C@@H](CC(=O)O)C(=O)O; NMeL = CN[C@@H](CC(C)C)C(=O)O; NMeV = CN[C@H](C(=O)O)C(C)C; d(β3hA) = C[C@@H](N)CC(=O)O; NMeS = CN[C@@H](CO)C(=O)O; Pip = O=C(O)[C@@H]1CCCCN1; NMeA = CN[C@@H](C)C(=O)O; NMeAib = CNC(C)(C)C(=O)O; Nle = CCCC[C@H](N)C(=O)O; Piperidide = C1CCN(*)CC1; Pyrrolidide = C1CCN(*)C1; dNMeA = CN[C@H](C)C(=O)O; Ac5c = NC1(C(=O)O)CCCC1; Aze = O=C(O)[C@@H]1CCN1; Isopentyl = CC(C)CC*; Sar = CNCC(=O)O
# Target: T1, Kras and SOS1 (biotin-tagged human Kras loaded with GDP, His-tagged human SOS1) (Homo sapiens, UniProt P01116, G12D)
# T1 construct: made in house; host or cells: E. coli (stated for Kras only)
# Assay: Protein-protein interaction inhibition between Kras and SOS1 (KrasGl2D-SOS PPI) using AlphaScreen
# Assay type: binding
# Conditions: AlphaScreen; biotin-tagged human Kras loaded with GDP, His-tagged human SOS1; read-out: KRAS G12D-SOS PPI IC50
# Method in brief: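 AlphaScreen format: Ni donor beads capture His-SOS1, streptavidin acceptor beads capture biotinylated Kras (E. coli-expressed, GDP-loaded post-purification). Excite 680 nm, read 520-620 nm.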
# T1 sequence (P01116 1-188 isoform P01116-2 G12D): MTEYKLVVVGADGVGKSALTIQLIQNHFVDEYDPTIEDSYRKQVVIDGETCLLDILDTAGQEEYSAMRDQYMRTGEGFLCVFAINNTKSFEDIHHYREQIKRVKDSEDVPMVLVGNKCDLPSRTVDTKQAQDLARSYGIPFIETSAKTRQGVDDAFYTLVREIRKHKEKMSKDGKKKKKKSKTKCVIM
row,Structure (SMILES),IC50 [nM]
1,CC[C@H](C)[C@@H]1NC(=O)[C@H](C)N(C)C(=O)C[C@@H](C)NC(=O)[C@H](C(C)C)N(C)C(=O)C2(CCCC2)NC(=O)[C@@H]2CCCN2C(=O)[C@H](CCc2ccc(C(F)(F)F)c(Cl)c2)NC(=O)[C@H]2CCCN2C(=O)[C@H](CC2CCCCC2)N(C)C(=O)[C@@H]2CCCN2C(=O)CN(C)C1=O [Compound 666] (cyclo([Ac5c][NMeV][d(β3hA)][NMeA]I[Sar]P[NMeCha][dP][hPhe(3-Cl-4-CF3)]P)),25
2,"CC[C@H](C)[C@@H]1NC(=O)[C@@H]2CCCCN2C(=O)C[C@@H](C(=O)N2CCCCC2)N(C)C(=O)[C@H](C(C)C)N(C)C(=O)C2(CCCC2)NC(=O)[C@@H]2CCCN2C(=O)[C@H](CCc2ccc(C(F)(F)F)c(F)c2)NC(=O)CN(C)C(=O)[C@H](CC2CCCCC2)N(C)C(=O)CN(C)C(=O)CN(C)C1=O [Compound 670] ([Pip]I[Sar][Sar][NMeCha][Sar][hPhe(3-F,4-CF3)]P[Ac5c][NMeV][NMeD]-Piperidide; lactam N-11)",5.1
3,CC[C@H](C)[C@@H]1NC(=O)[C@H](C)N(C)C(=O)C[C@@H](C)NC(=O)[C@H](C2CCCC2)N(C)C(=O)C2(CCCC2)NC(=O)[C@@H]2CCCN2C(=O)[C@H](CCc2ccc(C(F)(F)F)c(Cl)c2)NC(=O)[C@@H](C)N(C)C(=O)[C@H](Cc2ccccc2)N(C)C(=O)[C@@H]2CCN2C(=O)[C@H](C)N(C)C1=O [Compound 671] (cyclo([Ac5c][NMeGly(cPent)][d(β3hA)][NMeA]I[NMeA][Aze][NMeF][dNMeA][hPhe(3-Cl-4-CF3)]P)),52
4,CC[C@H](C)[C@@H]1NC(=O)[C@H](C)N(C)C(=O)C[C@@H](C(=O)N2CCCC2)NC(=O)[C@H](CC(C)C)N(C)C(=O)[C@H](COCCC(C)C)N(C)C(=O)[C@H](CC(C)C)NC(=O)[C@H](CCc2ccc(C(F)(F)F)cc2)NC(=O)CN(C)C(=O)[C@H](Cc2ccc(Cl)cc2)N(C)C(=O)CN(C)C(=O)CN(C)C1=O [Compound 675] ([NMeA]I[Sar][Sar][NMePhe(4-Cl)][Sar][hPhe(4-CF3)]L[NMeS](Isopentyl)[NMeL]D-Pyrrolidide; lactam N-11),59
5,"CC[C@H](C)[C@@H]1NC(=O)[C@H](C)N(C)C(=O)C[C@@H](C(=O)N2CCCCC2)N(C)C(=O)[C@H](C(C)C)N(C)C(=O)[C@H](CC(F)(F)F)NC(=O)[C@H](CC(=O)N2CC(F)(F)C2)N(C)C(=O)[C@H](CCc2ccc(C(F)(F)F)c(Cl)c2)NC(=O)CN(C)C(=O)[C@H](CC2CCCCC2)N(C)C(=O)CN(C)C(=O)CN(C)C1=O [Compound 679] ([NMeA]I[Sar][Sar][NMeCha][Sar][hPhe(3-Cl-4-CF3)][NMeD](Azetidine(3,3-F2))[Abu(4,4,4-F3)][NMeV][NMeD]-Piperidide; lactam N-11)",37
6,CCCC[C@@H]1NC(=O)[C@H](Cc2ccccc2F)NC(=O)CN(C)C(=O)[C@H](Cc2ccc(OC)cc2)N(C)C(=O)CN(C)C(=O)CN(C)C(=O)[C@H]([C@@H](C)CC)NC(=O)[C@H](CC(C)C)N(C)C(=O)C[C@@H](C(=O)N2CCCCC2)N(C)C(=O)[C@H](CC(C)C)NC(=O)[C@H](Cc2ccc(OC)cc2)N(C)C1=O [Compound 681] ([NMeL]I[Sar][Sar][NMeY](Me)[Sar][Phe(2-F)][Nle][NMeY](Me)L[NMeD]-Piperidide; lactam N-11),5.9
7,"CC[C@H](C)[C@@H]1NC(=O)[C@H](C)N(C)C(=O)C[C@@H](C(=O)N2CCCCC2)N(C)C(=O)[C@H](C(C)C)N(C)C(=O)C2(CCCC2)NC(=O)[C@H](CCN2CCCC(F)(F)C2)N(C)C(=O)[C@H](CCc2ccc(C(F)(F)F)c(Cl)c2)NC(=O)CN(C)C(=O)[C@H](CC2CCCCC2)N(C)C(=O)[C@@H]2CCN2C(=O)[C@H](C)N(C)C1=O [Compound 682] ([NMeA]I[NMeA][Aze][NMeCha][Sar][hPhe(3-Cl-4-CF3)][NMeAbu(3,3-F2-piperidino)][Ac5c][NMeV][NMeD]-Piperidide; lactam N-11)",20
8,"CC[C@H](C)[C@@H]1NC(=O)[C@H](CC(C)C)N(C)C(=O)C[C@@H](C)N(C)C(=O)[C@H](CC(C)C)NC(=O)C(C)(C)N(C)C(=O)[C@H](CC(C)C)NC(=O)[C@H](CCc2ccc(C(F)(F)F)c(F)c2)NC(=O)CN(C)C(=O)[C@H](CC2CCCCC2)N(C)C(=O)[C@@H]2CCN2C(=O)[C@H](C)N(C)C1=O [Compound 686] (cyclo([Aze][NMeCha][Sar][hPhe(3-F,4-CF3)]L[NMeAib]L[NMedβ3hAla][NMeL]I[NMeA]))",170
9,CC[C@H](C)[C@@H]1NC(=O)[C@H](CC(C)C)N(C)C(=O)C[C@@H](C(=O)N2CCCCC2)N(C)C(=O)[C@H](C2CCCCC2)N(C)C(=O)C2(CCCC2)NC(=O)[C@H](CC(=O)O)N(C)C(=O)[C@H](CCc2ccc(C(F)(F)F)c(Cl)c2)NC(=O)CN(C)C(=O)[C@H](CC2CCCCC2)N(C)C(=O)CN(C)C(=O)CN(C)C1=O [Compound 688] ([NMeL]I[Sar][Sar][NMeCha][Sar][hPhe(3-Cl-4-CF3)][NMeD][Ac5c][NMeChg][NMeD]-Piperidide; lactam N-11),2.3
